The record followed here is US8936667B2, “Aqueous leaching process for recovery of precious metals with addition of di-thiooxamide ligand” (Anglo Operations Limited, priority 2009, dated 2015).

The nature of one series: physchem. The series is classed as physicochemical. As to the method: Prior to the leach, the ligand is dissolved in water which has been pre-adjusted to the leach pH. […] It was suspected that the ligand became doubly deprotonated at pH 13.5 and above.
Series [1] can be described thus: Leaching of Witwatersrand gold ore, parameter studies (Example 2). The note with it: oxygen/permanganate, Eh above 60 mV; 25° C., 0.9 g/l DTO. The source says:
A head sample was submitted with every batch of samples in order to minimise errors caused by discrepancies in analysis among batches. The metal extractions for a particular batch of samples were therefore calculated using the head sample analysis from the same batch.
Deionised water was used in all preparation, dissolution, leach and washing steps.
The leach procedure was as follows:
The required amounts of ligand and alkaline water were mixed in a jacketed leach reactor until the ligand was fully dissolved. The ore was then added to the solution (unless otherwise specified, initial solids concentration was 17% m/m) and the reactor lid was fitted on. A stirring impeller, pH and (Ag/AgCl) redox electrodes, titration dispensing tube, temperature probe and gas distribution tube (if oxygen was used) were fitted into ports in the lid. The ore was then leached for the required amount of time. A water bath was used to maintain the leach temperature for the duration of the leach. The leach pH was controlled with an autotitrator. If oxygen was the oxidant, a mass flow controller was used to control oxygen-flow into the solution. At the end of the leach period, the slurry was filtered and the residue was given at least two water washes using water of the same pH as the leach solution, followed by a final wash with deionised water. […]

Converted amounts (≈) assume the structure as drawn.

Regarding `NC(=S)C(N)=S` [DTO, dithiooxamide], in “physchem”, the Solubility in water entry was “does not have good solubility in water”; the “Solubility of the ligand” value was “extremely low”; the pKa (in general, the negative logarithm of the acid dissociation constant) was 11. In addition, the solubility (commonly how much of the substance goes into solution per volume) in “physchem” (pH 12, aqueous buffer, thermodynamic from solid) was roughly 900 µg/mL (≈ 7.49 mM). In the series “physchem” (pH 13.5 to 14 compared with pH 11 to 13), the “Dissolution of ligand in water pre-adjusted to leach pH” value is “dissolved far more readily”. In series [1], the “Leach time to maximum gold extraction” value is recorded as 4 h.
